From patent US4174451A, “2-Furyl-(3,4-dimethyl-2-pyridyl)-carbinol” (Laboratorios Made, S.A., priority 1977, dated 1979)

Assays:
Swiss I.C.R. albino mice [1] = experiment: Thermal analgesia, 55° C. Hot Plate technique; assay type: in vivo; conditions: for Jumping time in sec. x ± S.E.M.: 30 minutes after administration, batches of 10 mice, mean ± S.E.M., control 63.7 ± 4.54; for Signif. of differences vs Control (jumping time): p value
Procedure: The thermal analgesic effect was studied in Swiss I.C.R. albino mice. The 55° C. Hot Plate technique was used. Batches of 10 mice were used.
The products under study were administered intraperitoneally, and after 30 minutes the mice were placed on the hot plate, count being made of the time, in seconds, it took them to jump. Batches of control animals were injected only with distilled water.

Swiss I.C.R. albino mice [2] = experiment: Chemical analgesia, acetic acid writhing technique; assay type: in vivo; conditions: for No. of writhes x ± S.E.M.: 30 minutes before 0.25 ml of 1% acetic acid i.p., counted twenty minutes later, batches of 10 mice, control 78.4 ± 6.7
Procedure: The analgesic effect was studied in Swiss I.C.R. albino mice, by the acetic acid writhing technique. Batches of 10 mice were made.
The products under study were administered intraperitoneally, and 30 minutes later 0.25 ml of 1% acetic acid was injected intraperitoneally. A batch of control animals received only the acetic acid. Twenty minutes following administration of the acetic acid, the number of writhes in each mouse was counted.

[3] = Acute toxicity in mice (LD50, Litchfield-Wilcoxon test); parameters: species or system Swiss I.C.R. albino mice; conditions: mouse, in vivo, ip; intraperitoneal, deaths counted 48 hours after treatment, both sexes, fasted 24 hours
Procedure: An acute toxicity study was made on Swiss I.C.R. albino mice of both sexes of 30± 2 g in weight, kept without food for 24 hours prior to the experiment. Ambient temperature and relative humidity were kept constant. The products were administered intraperitoneally, the number of deaths being counted 48 hours after treatment. The lethal dose (LD50) was calculated by the Litchfield-Wilcoxon test.

[4] = p value, 30 mg/kg intraperitoneal
[5] = in words, compared with dextropropoxyphene

## CCC(=O)O[C@](Cc1ccccc1)(c1ccccc1)[C@H](C)CN(C)C [Dextropropoxyphene, dextropropoxyphene, reference compound]
Swiss I.C.R. albino mice [1]; 30 mg/kg intraperitoneal
  Jumping time in sec. x ± S.E.M.: 116.8 ± 12.43 s
  Signif. of differences vs Control (jumping time): < 0.01
Swiss I.C.R. albino mice [2]; 30 mg/kg intraperitoneal
  No. of writhes x ± S.E.M.: 8.4 ± 4.04
Swiss I.C.R. albino mice [2]; [4]
  Signif. of differences vs Control (writhes): < 0.00005

## Cc1ccnc(C(O)c2ccco2)c1C (stereo not shown) [Product I, 2-furyl-(3,4-dimethyl-2-pyridyl)-carbinol]
Swiss I.C.R. albino mice [1]; 30 mg/kg intraperitoneal
  Jumping time in sec. x ± S.E.M.: 110.1 ± 13.28 s
  Signif. of differences vs Control (jumping time): < 0.005
Swiss I.C.R. albino mice [1]; 30 mg/kg intraperitoneal, vs dextropropoxyphene 30 mg/kg, N.S.
  Signif. of differences vs Dextroprop. (jumping time): N.S.
Swiss I.C.R. albino mice [1]; [5]
  thermal analgesic action: same thermal analgesic action as the dextropropoxyphene
Swiss I.C.R. albino mice [2]; 30 mg/kg intraperitoneal
  No. of writhes x ± S.E.M.: 53 ± 6.07
Swiss I.C.R. albino mice [2]; [5]
  chemical analgesic action: chemical analgesic action, but of lesser intensity than that of dextropropoxyphene
Swiss I.C.R. albino mice [2]; [4]
  Signif. of differences vs Control (writhes): < 0.02
Swiss I.C.R. albino mice [2]; p value, 30 mg/kg intraperitoneal, vs dextropropoxyphene 30 mg/kg
  Signif. of differences vs Dextroprop. (writhes): < 0.00005
[3]
  LD50 at 48 h: 309 mg/kg
